Consider 17 compounds from paper PMC9303367, “Synthesis of Aminoethyl‐Substituted Piperidine Derivatives as σ1 Receptor Ligands with Antiproliferative Properties” (Chemmedchem, 2022).

The target of series [1] is T1, σ1 receptor (Cavia porcellus, UniProt Q60492).
T1 construct: The thawed membrane preparation of guinea pig brain cortex; tissue Harlan-Winkelmann, Borchen, Germany; host or cells: guinea pig brain (cortex) membrane homogenate
In words: σ1 receptor radioligand binding assay ([3H]-(+)-pentazocine, guinea pig brain homogenate). As to conditions: for Ki: guinea pig brain, [3H]-(+)-pentazocine, piperidines tested as cis/trans mixtures; for σ1 : σ2 selectivity: Ki(σ2)/Ki(σ1).

In series [2] the target is T2, σ2 receptor (Rattus norvegicus, UniProt Q5U3Y7).
T2 construct: The thawed rat liver membrane preparation; tissue Harlan-Winkelmann, Borchen, Germany; host or cells: rat liver membrane preparation
T2 sequence (Q5U3Y7 1-176): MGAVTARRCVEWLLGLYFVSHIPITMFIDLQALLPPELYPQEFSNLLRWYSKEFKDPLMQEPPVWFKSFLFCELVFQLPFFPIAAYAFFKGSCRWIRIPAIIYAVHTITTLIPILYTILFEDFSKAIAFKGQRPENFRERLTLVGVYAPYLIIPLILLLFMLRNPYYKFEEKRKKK
The series is described as follows: σ2 receptor radioligand binding assay ([3H]DTG with excess (+)-pentazocine, rat liver membranes). As to conditions: for Ki: read-out: σ2 affinity K i±SEM (n=3), rat liver membranes, [3H]DTG + (+)-pentazocine; for inhibition at 1 µM: test compound concentration 1 μM.

Series [3] in a line: logD7.4 by micro shake flask method (n-octanol / MOPS buffer pH 7.4, MS). Type of series: physicochemical. Conditions: read-out: logD7.4 (exp., n=3). On the procedure: However, the penalty for increased hydrolytic stability and σ1 receptor affinity of tetrahydropyrans 2 and cyclohexanes 3 is an increased molecular lipophilicity. In Figure 1 the calculated clogP values of the σ1 ligands 1–3 and one designed piperidine 4 a are summarized. In order to confirm the predicted clogP values, the logD7.4 values of the σ1 ligands 1–4 a were also determined experimentally using the micro shake flask method.[39, 40]
In order to argue with reliable lipophilicity values, the logD7.4 values of key compounds were determined experimentally following our micro‐shake‐flask protocol.[39, 40] According to this method, each compound of interest was distributed between an n‐octanol layer and an aqueous MOPS buffer pH 7.4. Subsequently, the amount of compound in the buffer layer was determined by mass spectrometry.

The next series is described as follows: water solubility. It is filed as physicochemical. Conditions: at higher concentrations.
Series [4] concerns human non-small cell lung cancer cell line A427. The series is described as follows: A427 tumor cell proliferation (confluence) assay, IncuCyte S3 live cell imaging.
Protocol: In particular the confluence and IC 50 values were determined.
Live Cell imaging using the IncuCyte® S3 Live Cell Analysis System
The measurement of the cell confluence and the determination of the IC50 values were
performed with the IncuCyte® S3 Live Cell Analysis System (Essen BioScience, Ltd.,
Royston, Hertfordshire, UK)
5.4. Preparation of 96-well plates
For the preparation of the 96-well plates for the Live Cell Imager, A427 cells from the flask
were detached and centrifuged. The pellet was resuspended in 20 mL of the medium
using the vortexer. 1 mL was used to determine the number of cells and the volume
required for 8,000-12,000 cells was calculated. This volume was then added to each well
Switzerland) and the well was filled up to a total volume of 150 µL with medium.
At a confluence of 30-40 % the test compounds were added. Dilutions of concentrations
of 200, 100, 40, 20, 10 and 4 µM were prepared in medium with 2 % DMSO. 50 µL of
each dilution were added to the wells, resulting in a final assay concentration of 50, 25,
10, 5, 2.5 and 1 µM, respectively. Each concentration was measured in triplicates on each
plate and on three different days.
5.5. Measurement of cell confluence
The cell confluence was measured using the IncuCyte® S3. For the scanning with the
at a 10-fold magnification. Four pictures were taken from each well every 2 h until the
growth curve of the cells reached a plateau (approx. 5 d). The mask for the analysis of
adjustment size of -1 pixel and an area filter of minimum 200 µm2. After the analysis, a
graph showing the development of the confluence over time was produced.
5.6. Competitive confluence assay
The plates were prepared as described above with the exception that the cells were grown
in 100 µL instead of 150 µL of medium. After the cell confluence reached 30-40 %, the
(final concentration: 10 µM).
Series [5] deals with androgen negative human prostate cancer cells DU145. In words: DU145 cell growth inhibition, sulforhodamine B staining, 72 h. Type of series: cell-based. As to conditions: 72 h incubation, n=3, read-out: cytotoxicity (DU145) IC 50. The procedure: In the assay, DU145 tumor cells were incubated in 96‐well plates for 24 h. Different concentrations of the test compounds were added and after incubation for additional 72 h, the amount of living cells was recorded by staining with Sulforhodamine B.[62] In Table 3 the activity of the prototypical σ1 antagonists NE‐100 and S1RA is included.
6. Growth inhibition of DU145 tumor cells
DU145 cells were purchased from ATCC and maintained in adherent conditions in RPMI 1640 medium (21875-034, Gibco®) supplemented with 2 % (S)-glutamine, 10 % fetal […]
Gibco®). For the proliferation assays, DU145 cells were seeded at a density of 2 x 10^3 cells/well in 96-well tissue culture plates. 24 h later, the cells were treated with the […]
Then, the cells were fixed with 10 % (w/v) trichloroacetic acid and stained with sulforhodamine B for 30 min. The excess of the dye was removed by washing repeatedly with 1 % (v/v) acetic acid and the protein-bound dye was solubilized with Tris base solution for optical density (OD) measurement at 510 nm with a microplate reader. Cell proliferation and viability were expressed as percentages relative to those of DMSO treated cells. The data represent the results from three independent experiments. Statistical analysis was done using T-test and Anova. Figure […]
and two reference σ1 receptor antagonists.
(The SRB assay estimates cell density from bound dye.)

Series [6] addresses σ1 receptor. As to conditions: read-out: σ1 affinity K i±SEM, cited from earlier work.
The target of series [7] is T1, σ1 receptor. Conditions: cited from earlier work.
Series [8] has as its target T2, σ2 receptor. As to conditions: lead compounds 1–3; read-out: σ2 affinity K i±SEM; cited from earlier work.
Series [9] concerns σ1 receptor. Set-up: method as in PMID 21444132, PMID 21598296. Conditions: mouse capsaicin assay; cited from earlier work.
[10] abbreviates: read-out: σ1 affinity K i±SEM (n=3).
[11] abbreviates: lead compounds 1–3 (enantiomers), read-out: σ1 affinity K i±SEM.

Where two headings read alike, the source gives them in different places.

T1 sequence (Q60492 whole entry): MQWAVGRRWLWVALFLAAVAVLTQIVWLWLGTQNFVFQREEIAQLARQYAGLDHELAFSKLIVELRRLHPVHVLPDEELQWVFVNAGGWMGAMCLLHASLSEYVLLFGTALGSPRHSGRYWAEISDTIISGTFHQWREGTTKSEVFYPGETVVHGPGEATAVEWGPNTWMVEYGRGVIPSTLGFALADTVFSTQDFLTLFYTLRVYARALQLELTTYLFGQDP

For the compound `c1ccc(CNCCC2CCNC(c3ccccc3)C2)cc1` (stereo not drawn) [4a, cis‐ and trans‐N‐Benzyl‐2‐(2‐phenylpiperidin‐4‐yl)ethan‐1‐amine], the Ki came out at 165 nM at σ1 receptor [1] (setting [10]) and 372 nM on σ2 receptor [2]. Also, the logD in series [3] is -0.79 ± 0.07. In addition, the water solubility entry in “water solubility” was “good water solubility”. Moreover, the IC50 in series [4] (Homo sapiens, A-427, 120 h, read-out: Inhibition of cell confluency IC50 ± SD, A427 cells, last time point (approx. 5 d), n = 3) stood at 18000 nM; in series [4] (read-out: Inhibition of cell confluency IC50 ± SD, A427 cells, last time point (approx. 5 d), n = 3), 17000 nM. In addition, the “functional behaviour at σ1 receptor in A427 tumor cell proliferation assay” value in series [4] (effect reduced by σ1 agonist (+)-pentazocine (10 μM)) is listed as “σ1 receptor antagonist”.
Consider `c1ccc(CCCNCCC2CCNC(c3ccccc3)C2)cc1` (stereo not drawn) [4b, cis‐ and trans‐N‐(3‐Phenylpropyl)‐2‐(2‐phenyl‐piperidin‐ 4‐yl)ethan‐1‐amine], for which the Ki on σ1 receptor [1] (σ1 affinity K i±SEM (n=3)) was 849 nM. The inhibition – broadly, the drop in the measured response relative to a control, in per cent – at 1 µM at σ2 receptor [2] worked out at 0%.
For the compound `Cc1ccc(S(=O)(=O)N2CCC(CCNCc3ccccc3)CC2c2ccccc2)cc1` (stereo not drawn) [13a, cis‐ and trans‐N‐Benzyl‐2‐(2‐phenyl‐1‐tosyl‐piperidin‐ 4‐yl)ethan‐1‐amine], the melting point (usually the temperature of the solid-liquid transition) stood at 79 °C. Besides, the “σ1 : σ2 selectivity” value at σ1 receptor [1] turned out to be 13. Also, the Ki on σ1 receptor [1] (σ1 affinity K i±SEM (n=3)) was 57 ± 21 nM.
Turning to `Cc1ccc(S(=O)(=O)N2CCC(CCNCCCc3ccccc3)CC2c2ccccc2)cc1` (stereo not drawn) [13b, cis‐ and trans‐N‐(3‐Phenylpropyl)‐2‐(2‐phenyl‐1‐tosylpiperidin‐4‐yl)ethan‐1‐amine], the “σ1 : σ2 selectivity” value at σ1 receptor [1] is 2. Further, the Ki on σ1 receptor [1] (σ1 affinity K i±SEM (n=3)) came to 291 ± 139 nM.
Turning to `CN1CCC(CCNCc2ccccc2)CC1c1ccccc1` (stereo not drawn) [18a, cis‐ and trans‐N‐Benzyl‐2‐(1‐methyl‐2‐phenyl‐piperidin‐ 4‐yl)ethan‐1‐amine], on σ1 receptor [1], the “σ1 : σ2 selectivity” value stood at 61. Moreover, the Ki on σ1 receptor [1] (setting [10]) is 7.9 ± 0.2 nM. Moreover, the logD in series [3] stood at 0.52 ± 0.01.
Regarding `CCN1CCC(CCNCc2ccccc2)CC1c1ccccc1` (stereo not drawn) [18b, cis‐ and trans‐N‐Benzyl‐2‐(1‐ethyl‐2‐phenyl‐piperidin‐ 4‐yl)ethan‐1‐amine], the “σ1 : σ2 selectivity” value at σ1 receptor [1] is given as 1. The Ki on σ1 receptor [1] (σ1 affinity K i±SEM (n=3)) turned out to be 129 ± 38 nM.
Regarding `CN1CC[C@H](CCNCCCc2ccccc2)C[C@@H]1c1ccccc1` [19a, cis‐N‐(2‐(1‐Methyl‐2‐phenylpiperidin‐4‐yl)‐ethyl)‐3‐ phenylpropan‐1‐amine], the “σ1 : σ2 selectivity” value on σ1 receptor [1] is greater than 20. Further, the Ki on σ1 receptor [1] (σ1 affinity K i±SEM (n=3)) was 50 ± 17 nM. On σ2 receptor [2], this compound showed an inhibition at 1 µM of 0%.
Consider `CCN1CC[C@H](CCNCCCc2ccccc2)C[C@@H]1c1ccccc1` [19b, cis‐N‐(2‐(1‐Ethyl‐2‐phenylpiperidin‐4‐yl)ethyl)‐3‐phenylpropan‐1‐amine], for which the Ki at σ1 receptor [1] (σ1 affinity K i±SEM (n=3)) is 2400 nM. Further, the “preference for the σ2 receptor over the σ1 receptor” value on σ2 receptor [2] is recorded as 7 fold.
`CN1CCC(CCNCC2CCCCC2)CC1c1ccccc1` (stereo not drawn) [20a, cis‐ and trans‐N‐(Cyclohexylmethyl)‐2‐(1‐methyl‐ 2‐phenylpiperidin‐4‐yl)ethan‐1‐amine]: the “σ1 : σ2 selectivity” value at σ1 receptor [1] turned out to be 18. Moreover, the Ki at σ1 receptor [1] (σ1 affinity K i±SEM (n=3)) turned out to be 16 ± 5 nM. For the same compound, in [5] (Homo sapiens, DU-145), the IC50 came to 4900 nM.
Take `CN(CCC1CCN(C)C(c2ccccc2)C1)Cc1ccccc1` (stereo not drawn) [21a, cis‐ and trans‐N‐Benzyl‐N‐methyl‐2‐(1‐methyl‐ 2‐phenylpiperidin‐4‐yl)ethan‐1‐amine]: the “σ1 : σ2 selectivity” value at σ1 receptor [1] turned out to be 4. Further, the Ki at σ1 receptor [1] (setting [10]) is 19 ± 9 nM; at σ1 receptor [1] (σ1 affinity K i±SEM (n=3)), less than 27 nM; on σ2 receptor [2] it was 77 ± 5 nM. In addition, the IC50 in [5] (Homo sapiens, DU-145) turned out to be 5500 nM.
As for `CN1CCC(CCN2CCN(c3ccccc3)CC2)CC1c1ccccc1` (stereo not drawn) [22a, cis‐ and trans‐1‐(2‐(1‐Methyl‐2‐phenyl‐ piperidin‐4‐yl)ethyl)‐4‐phenylpiperazine], the “σ1 : σ2 selectivity” value at σ1 receptor [1] turned out to be 59. Further, the Ki was 27 ± 11 nM at σ1 receptor [1] (setting [10]), less than 27 nM at σ1 receptor [1] (σ1 affinity K i±SEM (n=3)) and 1600 nM on σ2 receptor [2]. Besides, the IC50 in series [5] (Homo sapiens, DU-145) was 4000 nM.
With `CC(C)=CCN1CC[C@]2(C)c3cc(O)ccc3C[C@H]1[C@H]2C` [(+)‐pentazocine, reference compound], the “Inhibition of cell confluency IC50 ± SD” value in [4] (A427 cells, last time point (approx. 5 d), n = 3) is given as “no effect”.
As to `CCCN(CCC)CCc1ccc(OC)c(OCCc2ccccc2)c1` [NE‐100, reference compound], the IC50 in [5] is greater than 10000 nM. In addition, the Ki at σ1 receptor [6] (NE-100) is 1.3 nM.
As for `Cc1cc(OCCN2CCOCC2)nn1-c1ccc2ccccc2c1` [S1RA, reference compound], the IC50 in series [5] was greater than 10000 nM. Moreover, at σ1 receptor [6] (S1RA), the Ki was 17 ± 7 nM.
On to `c1ccc(CNCCC2CCOC(c3ccccc3)O2)cc1` (stereo not drawn) [compound 1], for which the logD in series [3] worked out at 1.36 ± 0.02. For the same compound, the Ki at σ1 receptor [7] (1,3-dioxane 1, read-out: σ1 affinity K i) was 19 nM; at σ1 receptor [7] (setting [11]), 6 ± 1 nM; on σ2 receptor [8], 4200 nM. In addition, the “antiallodynic activity in vivo” value in the series on σ1 receptor [9] is “high antiallodynic activity”.
Turning to `c1ccc(CNCCC2CCCC(c3ccccc3)O2)cc1` (stereo not drawn) [compound 2], the logD in [3] was 2.52 ± 0.05. Further, the Ki was 1.6 ± 0.2 nM on σ1 receptor [7] (setting [11]) and 378 nM at σ2 receptor [8].
On to `c1ccc(CNCCC2CCCC(c3ccccc3)C2)cc1` (stereo not drawn) [compound 3], for which, in series [3], the logD is 3.25 ± 0.02. Also, the Ki is 0.61 ± 0.1 nM on σ1 receptor [7] (setting [11]) and 49 ± 31 nM on σ2 receptor [8]. In addition, on σ1 receptor [7] (lead compounds 1–3), the “σ1 : σ2 selectivity” value is 80.
